Like-named read-outs stand apart in the source and are kept apart here.
Assays:
[1] = system: SARS-CoV-2; assay type: cell-based
[2] = system: SARS-CoV-2; assay: In vivo efficacy against SARS-CoV-2 in Syrian Golden Hamster Model (lung viral load); conditions: oral, once daily for 3 days (1-3 DPI), Atovaquone 200 mg/kg, Cepharantine 8 mg/kg, combination 200 + 8 mg/kg
Source text: In vivo efficacy evaluation of Atovaquone and Cepharanthine alone and in combination against SARS-CoV-2 in Syrian Golden Hamster Model [Study Protocol Reference:) Syrian hamsters as a small animal model for SARS-CoV-2 infection and countermeasure development. Masaki Imai et al., PNAS 2020, 117(28)16587-16595]
Data Analysis One way ANOVA-Dunnett's multiple comparison test

[3] = system: Vero E6 cells; assay: Cytotoxicity of test agents in the Vero E6 checkerboard assay; conditions: Experiment 2, highest concentration tested
[4] = system: Vero E6 cells

O=C1C(O)=C([C@H]2CC[C@H](c3ccc(Cl)cc3)CC2)C(=O)c2ccccc21 [Atovaquone, atovaquone]
antiviral efficacy ([1]; 0.12-0.37, alone): inactive
inhibition of virus induced cytopathic effects (CPE) ([1]; Experiment 1, Atovaquone 0.12 micromol alone (Niclosamide 0.00)): 2.38%
inhibition of virus induced cytopathic effects (CPE) ([1]; Experiment 1, Atovaquone 0.37 micromol alone (Niclosamide 0.00)): 9.52%
inhibition of virus induced cytopathic effects (CPE) ([1]; Experiment 1, Atovaquone 1.10 micromol alone (Niclosamide 0.00)): 16.67%
inhibition of virus induced cytopathic effects (CPE) ([1]; Experiment 1, Atovaquone 3.30 micromol alone (Niclosamide 0.00)): 50.00%
inhibition of virus induced cytopathic effects (CPE) ([1]; Experiment 2, Atovaquone 0.12 micromol alone (Cepharanthine 0.00)): 2.38%
inhibition of virus induced cytopathic effects (CPE) ([1]; Experiment 2, Atovaquone 0.37 micromol alone (Cepharanthine 0.00)): 9.52%
inhibition of virus induced cytopathic effects (CPE) ([1]; Experiment 2, Atovaquone 1.10 micromol alone (Cepharanthine 0.00)): 16.67%
inhibition of virus induced cytopathic effects (CPE) ([1]; Experiment 2, Atovaquone 3.30 micromol alone (Cepharanthine 0.00)): 50.00%
inhibits virus induced cytopathic effects (CPE) ([1]; concentration of 3.3 micro mol): 50%
Mean Difference (Log10PFU/lung), Infection Control vs. group [2]: 0.74 Log10PFU/lung

CCC(CC)COC(=O)[C@H](C)N[P@](=O)(OC[C@H]1O[C@@](C#N)(c2ccc3c(N)ncnn23)[C@H](O)[C@@H]1O)Oc1ccccc1 [Remdesivir]
Mean Difference (Log10PFU/lung), Infection Control vs. group [2]: 0.97 Log10PFU/lung

COc1ccc2cc1Oc1ccc(cc1)C[C@H]1c3c(cc4c(c3Oc3cc5c(cc3OC)CCN(C)[C@@H]5C2)OCO4)CCN1C [Cepharanthine, cepharantine]
antiviral efficacy ([1]; 0.04-0.12 micromole, alone): inactive
inhibition of virus induced cytopathic effects (CPE) ([1]; Cepharanthine 0.04 micromol alone (Atovaquone 0.00)): 7.14%
inhibition of virus induced cytopathic effects (CPE) ([1]; Cepharanthine 0.12 micromol alone (Atovaquone 0.00)): 9.52%
inhibition of virus induced cytopathic effects (CPE) ([1]; Cepharanthine 0.37 micromol alone (Atovaquone 0.00)): 14.29%
inhibition of virus induced cytopathic effects (CPE) ([1]; Cepharanthine 1.10 micromol alone (Atovaquone 0.00)): 38.10%
Mean Difference (Log10PFU/lung), Infection Control vs. group [2]: 0.42 Log10PFU/lung
cytotoxicity [3]: neither cepharantine nor atovaquone are cytotoxic

O=C(Nc1ccc([N+](=O)[O-])cc1Cl)c1cc(Cl)ccc1O [Niclosamide, niclosamide]
antiviral efficacy ([1]; 0.12 to 0.37 micromolar, without the addition of atovaquone): inactive
inhibition of virus induced cytopathic effects (CPE) ([1]; Niclosamide 0.12 micromol alone (Atovaquone 0.00)): 11.90%
inhibition of virus induced cytopathic effects (CPE) ([1]; Niclosamide 0.37 micromol alone (Atovaquone 0.00)): 9.52%
inhibition of virus induced cytopathic effects (CPE) ([1]; Niclosamide 1.10 micromol alone (Atovaquone 0.00)): 16.67%
antiviral efficacy ([1]; concentrations ranging from 0.12 to 1,1 micro mol): non-efficacious
cytotoxicity [4]: non cytotoxic

From patent publication US20240099991A1, “HOST DIRECTED DRUG COMBINATIONS FOR TREATMENT OF VIRAL INFECTIONS” (priority 2021, published 2024)
